Tests used:
[1] = system: HT-29 colon carcinoma xenograft tumors; details: Tc-99m labeled, i.v., 22 hours after injection
Method: Biodistribution and imaging studies were conducted using female Nu/Nu HT-29 xenograft tumor-bearing mice, a model for colon carcinoma. […] Two μg of the test compounds were labeled with 100 μCi of Tc-99m and each was injected into 10 Nu/Nu mice bearing HT-29 tumors on the flank. The organs of interest were removed from half the mice at 3 hr, and the organs of the remaining mice were removed at 22 h. Each set of organs were counted for gamma radiation.
Twenty μg of each construct was dissolved in 20 mM sodium acetate, pH 4.5, at a minimum concentration of 30 μg/mn. The pH was checked and adjusted as necessary. A 50 mCi vial of ^99m TcO4 Na (Syncor) was added to a vial of Glucoscan® (Dupont) in a leaded glass shield using a shielded tuberculin syringe. 100 μL of the resulting solution was dose calibrated, and the volume required for 20 doses of 100 μCi was calculated (ca. 40-45 μL). This amount was divided into two equal parts and added to the two solutions of construct in microfuge tubes and incubated for 1 h at 37° C. Percent chelation was checked by chromatography on ITLC developed with 0.9% saline, and analyzed by autoradiography counter. The two solutions were diluted to 2.2 mL each with 0.9% saline. The diluted solutions werethen divided into numbered tuberculin syringes (200 μL each). […]
Dissected tissues were weighed, and their content of Tc-99m was determined by gamma counting.

[2] = biological target: T1, I-125-GRP binding to NIH-3T3 cells (Mus musculus, UniProt P21729); experiment: In vitro receptor binding assay: inhibition of binding of I-125-GRP to NIH-3T3 cells; parameters: species or system Murine; details: for IC50: […] 125I-GRP, 30 min RT, read-out: IC50, inhibition of binding of labeled GRP to NIH-3T3 cells; for Binding of competing ligand relative to control ligand Neuromedin C: competition with 125I-GRP
T1 construct: Murine NIH-3T3 fibroblast cells (ATCC No. CCL92) were released from flasks; endogenous in cells; host or cells: NIH-3T3 murine fibroblasts (ATCC No. CCL92), whole cells
Method: Murine NIH-3T3 fibroblast cells (ATCC No. CCL92) were released from flasks with EDTA harvest buffer, consisting of 0.6 mm EDTA, 25 mm PBS (8 g NaCl, 0.2 g KCl, 1.44 g Na2 PO4, 0.2 g KH2 PO4 per liter), pH 7.4, 37° C., by incubation for 15 min.
The cells were washed twice with Assay Buffer (50 mM Tris-HCl, 100 mM NaCl, 0.1% BSA, 0.1 mg/mL bacitracin, 0.05 mg/mL aprotinin, 1 mM PMSF), pH 7.4, 4° C. and resuspended at a density of 3×10^6 cells/mL.
A 0.5 mL Eppendorf tube was prepared for each assay point by incubating the tube overnight with a blocking solution of 1% BSA, 50 mM Tris. HCl, 100 mM NaCl, pH 7.4. The blocking solution was removed.
Each tube was charged with 4×10^4 cells. […] Three control tubes with no cells or competitor were prepared for measurement of total counts added.
The samples were incubated for 30 min at RT. The contents of each tube were transferred into the wells of a 96-well filter bottom plate (Millipore Multiscreen, Arlington Heights, Mass.) and filtered under moderate vacuum (water aspirator). Each filter was washed three times by filling each well with ice cold PBS, Ph 7.4, 0.1% BSA. The plate was allowed to dry. Dried filters were placed into gamma-counter tubes (12×75 mm glass). The radioactivity on each filter and in the control tubes was counted using a LKB gamma counter. The bound/total added for each assay tube was calculated.

T1 sequence (P21729 whole entry): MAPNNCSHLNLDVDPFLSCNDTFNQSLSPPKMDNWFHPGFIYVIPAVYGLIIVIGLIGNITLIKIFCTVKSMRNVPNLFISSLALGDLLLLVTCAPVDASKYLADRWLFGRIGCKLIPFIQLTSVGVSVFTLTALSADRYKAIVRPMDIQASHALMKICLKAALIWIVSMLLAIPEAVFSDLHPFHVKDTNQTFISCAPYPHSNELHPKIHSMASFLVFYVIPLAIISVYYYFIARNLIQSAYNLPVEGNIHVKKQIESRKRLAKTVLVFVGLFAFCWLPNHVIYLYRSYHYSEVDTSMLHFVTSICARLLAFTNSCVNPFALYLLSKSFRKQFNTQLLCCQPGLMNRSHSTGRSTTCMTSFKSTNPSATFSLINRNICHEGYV

Substance	Localization to HT-29 tumors [1]	IC50 [2] [nM]	Binding of competing ligand relative to control ligand Neuromedin C [2]
Benzoic acid bis-thiosemicarbazide derived from N-acetyl-Neuromedin C-hydrazide [Compound 6]	evident	43.3	within an order of magnitude of the control ligand Neuromedin C
Benzoic acid bis-thiourea derived from Neuromedin-C [Compound 3]	evident	10.6	within an order of magnitude of the control ligand Neuromedin C
